The source made the active and inactive calls.

Assay [1] concerns the target T1, Ubiquitin-conjugating enzyme E2 N (Homo sapiens, UniProt P61088).
T1 sequence (P61088 whole entry): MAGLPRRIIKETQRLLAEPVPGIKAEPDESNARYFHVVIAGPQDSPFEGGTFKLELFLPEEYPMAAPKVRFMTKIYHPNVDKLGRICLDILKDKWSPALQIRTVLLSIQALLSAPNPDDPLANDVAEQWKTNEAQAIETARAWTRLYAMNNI
It counts as functional.

Another assay has as its target CAAX prenyl protease 1 (Saccharomyces cerevisiae S288c, UniProt P47154). Description: Ste24 protease inhibitors, dose response, biochemical, S. cerevisiae, plate reader, cherry-pick (AID 488815).
The target of the next assay is T2, Bcl-2-related protein A1 (Mus musculus, UniProt Q07440).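 Also: confirmatory dose–response counterscreen on Bfl-1, used to check hits from a UBC13 polyubiquitin inhibitor campaign.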
T2 sequence (Q07440 whole entry): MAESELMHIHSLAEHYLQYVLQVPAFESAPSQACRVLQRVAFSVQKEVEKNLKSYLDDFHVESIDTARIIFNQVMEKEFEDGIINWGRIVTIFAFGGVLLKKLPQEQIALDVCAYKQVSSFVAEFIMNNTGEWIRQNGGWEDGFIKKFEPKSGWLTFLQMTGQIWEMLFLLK
It counts as functional.

The target in a further assay is T3, CAAX prenyl protease 2 (Saccharomyces cerevisiae S288c, UniProt Q03530).
T3 sequence (Q03530 whole entry): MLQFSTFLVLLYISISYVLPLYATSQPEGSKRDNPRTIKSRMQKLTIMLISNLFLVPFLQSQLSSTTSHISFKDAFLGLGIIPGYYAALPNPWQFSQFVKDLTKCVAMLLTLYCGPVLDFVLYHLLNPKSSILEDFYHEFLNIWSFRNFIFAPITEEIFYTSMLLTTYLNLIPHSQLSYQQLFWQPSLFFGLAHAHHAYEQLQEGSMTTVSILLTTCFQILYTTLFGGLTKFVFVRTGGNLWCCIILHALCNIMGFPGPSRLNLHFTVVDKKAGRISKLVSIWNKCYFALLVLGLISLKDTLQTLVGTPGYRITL
It counts as biochemical.

Assay [2] concerns the target T4, High affinity choline transporter 1 (Homo sapiens, UniProt Q9GZV3).
T4 sequence (Q9GZV3 whole entry): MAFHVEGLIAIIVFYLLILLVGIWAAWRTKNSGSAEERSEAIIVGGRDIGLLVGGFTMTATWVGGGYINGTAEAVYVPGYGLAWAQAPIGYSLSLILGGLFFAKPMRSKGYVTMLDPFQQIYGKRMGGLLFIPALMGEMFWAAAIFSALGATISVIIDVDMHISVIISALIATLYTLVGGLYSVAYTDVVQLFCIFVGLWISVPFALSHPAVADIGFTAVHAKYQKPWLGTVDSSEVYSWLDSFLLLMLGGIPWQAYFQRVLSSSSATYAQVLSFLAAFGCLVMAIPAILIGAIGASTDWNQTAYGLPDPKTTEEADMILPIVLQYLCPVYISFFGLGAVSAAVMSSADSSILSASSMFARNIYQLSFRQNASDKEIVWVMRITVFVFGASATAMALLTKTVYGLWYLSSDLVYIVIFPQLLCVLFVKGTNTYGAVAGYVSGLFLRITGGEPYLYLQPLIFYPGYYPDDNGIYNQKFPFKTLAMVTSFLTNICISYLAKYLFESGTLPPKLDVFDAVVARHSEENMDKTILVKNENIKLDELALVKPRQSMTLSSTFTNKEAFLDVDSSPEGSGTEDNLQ
Description: CHT inhibitors, dose response, cell-based, 10-point CRC, membrane potential dye (AID 588401).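 Also: membrane potential dye fluorescence of choline-evoked depolarization via CHT.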 It counts as functional.

For assay [3], the target named is T1, Ubiquitin-conjugating enzyme E2 N. It counts as functional. The source holds these as a separate data set.
In assay [4] the target is T4, High affinity choline transporter 1. Description: CHT inhibitors, dose response, cell-based, 5-point CRC, membrane potential dye (AID 504840). It counts as functional.

Chain of CAAX prenyl protease 1 (P47154 whole entry): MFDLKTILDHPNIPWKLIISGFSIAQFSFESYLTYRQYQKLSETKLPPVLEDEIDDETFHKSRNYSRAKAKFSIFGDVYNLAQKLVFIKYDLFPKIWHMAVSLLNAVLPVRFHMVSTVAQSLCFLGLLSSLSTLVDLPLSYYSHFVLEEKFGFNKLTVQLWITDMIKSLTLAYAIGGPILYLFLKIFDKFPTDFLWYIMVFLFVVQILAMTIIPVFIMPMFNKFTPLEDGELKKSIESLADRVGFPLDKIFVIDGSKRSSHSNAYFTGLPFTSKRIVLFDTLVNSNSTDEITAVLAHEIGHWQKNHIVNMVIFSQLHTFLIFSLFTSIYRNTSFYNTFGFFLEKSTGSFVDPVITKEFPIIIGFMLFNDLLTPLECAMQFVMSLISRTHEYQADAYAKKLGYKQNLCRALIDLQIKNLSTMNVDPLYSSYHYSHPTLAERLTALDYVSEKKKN

Usually IC50 stands for the point on the concentration scale where inhibition reaches its midpoint. Broadly, the AC50 is the concentration giving half of the maximal activity seen. As to `NCCCn1c(C(=O)c2cc(Cl)c(N)c(Cl)c2)c2ccc(C(F)(F)F)cc2[n+]1[O-]`, the concentration for half-maximal inhibition (IC50) in assay [1] was 4.28 µM (active); at Bcl-2-related protein A1 it was > 20 µM (inactive); in assay [2], 1.08 µM (active); in assay [3] it was 4.21 µM (active); in assay [4], 1.39 µM (active). In addition, the figures for the AC50 at CAAX prenyl protease 1 and on CAAX prenyl protease 2 were > 100 µM (inactive) and 35.5 µM (active), respectively.

Values taken from ChEMBL document CHEMBL1201862, “PubChem BioAssay data set” (2004).
